# Results as given in patent US20250145570A1, “DHODH INHIBITOR POLYMORPH” (Aslan Pharmaceuticals Pte Ltd, priority 2022, published 2025).
# Entries after “also recorded” stand apart in the source; their conditions may differ. Where two headings read alike, the source gives them in different places.
# What was measured:
# Format in all cases: physicochemical
# [1] = Particle size distribution (PSD)
# [2] = Approximate solubility by manual dilution combined with visual observation; conditions: thermodynamic from solid
# Experimental: The approximate solubility was tested at room temperature by manual dilution combined with visual observation. The solubility of material in different single and mixed solvents was determined at the concentration once no particles of farudodstat could be visually observed in solvents.
# [3] = Form stability of DSP polymorph after processing/recrystallisation (XRPD, DSC, TGA)
# Experimental: The farudodstat DSP polymorph was characterized using X-ray powder diffraction (XRPD), differential scanning calorimetry (DSC), thermogravimetric analysis, (TGA) and polarized light microscopy (PLM). Then it was subjected to various recrystallisation and analysis to confirm it was a DSP polymorph.
# The suspensions of the DSP polymorph were prepared in different single solvents and mixed solvents (see Table 4 below). After this the samples were kept shaking for 72 hrs at 25° C. and 50° C. before they were centrifuged at 14,000 rpm for 10 mins until solid material was separated from the supernatant. The centrifuged samples were investigated by XRPD. The samples were dried under vacuum conditions at 40° overnight and investigated by XRPD, DSC and TGA if new XRPD patterns were found.
# The farudodstat DSP polymorph was subject to processing or treated to test the physical stability of the form.
# 50 mg of the DSP polymorph was dissolved in the selected solvents (see Table 4) according to the solubility results to form saturated solutions. Next, the anti-solvent was slowly added into the solution under stirring until the precipitation formed. If there was no solid precipitation at room temperature, the sample was transferred into the freezer and stored at −20° C. After this, the slurries were stirred for 24 hours before they were centrifuged at 14,000 rpm for 10 mins, until solid material was separated from the supernatant. The centrifuged samples were investigated by XRPD. The samples were next dried under vacuum conditions at 40° C. overnight. If crystalline XRPD patterns were found, the samples were further investigated by XRPD, DSC and TGA.
# Due to the high solubility of the DSP polymorph in some solvents (see Table 4), these solvents were chosen for the evaporation test. The solutions were prepared according to the solubility of the compound and were kept open at room temperature to let the solvents evaporate to form crystals. After evaporation was complete, the dried solids were collected and investigated by XRPD. Further tests were performed on DSC and TGA if new XRPD patterns were found.
# 10-30 mg of the original form of ASLAN003 was loaded into glass vials and placed in a thermomixer at either 60° C. or 50° C. After this, the selected solvents (see Table 4) were slowly added to the samples until the compound was completely dissolved. Next, the samples were transferred into the Crystal 16 crystallizer and the cooled to 0° C. at a rate of 0.5° C./min, before they were held at 0° C. for 24 hrs. If there was no solid precipitation at 0° C., the sample was transferred into a freezer at −20° C. […]
# Two samples from Example 4: • 1. […] THF with water by antisolvent were further characterized after drying under vacuum conditions at 40° C. overnight and evaluated.
# [4] = Polymorph screening experiments (XRPD of returned solids); conditions: for XRPD after thermal cycling: 5-40° C., ~72 hours, THP and THF; for XRPD after 2-week slurry: 40° C.; for XRPD (Grind): fast evaporation at 100° C., post-grinding
# Experimental: A solvent solubility screen was carried out on the farudodstat DSP polymorph (also referred to as CS-276-22 in the following examples) to determine its solubility in various solvents, and to gain an initial assessment of the polymorphic landscape. To ˜20 mg samples of predominantly amorphous farudodstat, aliquots (2×50 μL and then 100 μL) of the chosen solvents were added until dissolution was observed, or 2 mL had been added. The samples were manually agitated and heated to ˜40° C. in a block attached to a water bath in between each aliquot Clear solutions were uncapped and allowed to evaporate at room temperature. Any solids obtained from slurries and from evaporation were analysed by X-ray powder diffraction (XRPD).
# 16×20 mg of the farudodstat DSP polymorph sample was weighed into 2 mL bead mill vials and was milled for 1.5 hrs for amorphization. Next, 5 μL of appropriate solvents (see Table 6) were added to each sample. The samples were then bead milled using the following procedure: • 1. 2 stainless steel beads were added to each vial. • 2. 4500 rpm • 3. 10×90 s cycles • 4. 10 s hold between each cycle • 5. Repeated 4× to give 1 hr milling time
# 16×20 mg of farudodstat sample was first weighed into 2 mL bead mill vials and was milled to prepare amorphous material. To all the […] bead milled samples, appropriate solvents (see Table 6) were added in 100 μL aliquots until a mobile slurry was obtained without any dissolution observed. Between additions, the samples were stirred at 40° C. Samples were then stirred, and temperature cycled between 5-40° C. (0.1° C./min heating/cooling rate, 1 hour hold at each temperature) for ˜72 hours.
# After 48 hours, samples were checked. If necessary, additional solids added. Non-mobile solid in solution samples were agitated using a spatula until a mobile slurry was obtained. Slurries were isolated by centrifugation ([…] nylon filters) and the solids analysed by XRPD. Post XRPD analysis, the XRPD plate was dried at 40° C. under vacuum for 48 hours and the solids reanalysed by XRPD to give an indication of form stability.
# The saturate isolated from the previous thermal cycling experiment was left to evaporate at room temperature. Any solids returned from evaporation were analysed by XRPD.
# 16×20 mg of farudodstat sample was weighed into 2 mL bead mill vials and then milled to prepare amorphous material. To the bead milled sample, appropriate solvent was added in 100 μL aliquots until a mobile slurry was obtained without any dissolution observed. Between additions, the samples were stirred at 50° C. and 100° C. depending upon the boiling point of the solvent to dissolve the API in the solvent system. Samples were checked and slurries were isolated by centrifugation ([…] Nylon filters) and the saturates were put in an HPLC vials. Next, the vials were uncapped and were left to evaporate at 50° C. using a water bath. Finally, after the complete evaporation of solvent, the remaining solid were analysed by XRPD to check for appearance of any new patterns.
# 20 mg×5 of farudodstat sample was weighed into 2 ml bead mill vials and milled to prepare amorphous material. To the bead milled sample, appropriate solvent was added in 100 μL aliquots until a mobile slurry was obtained without any dissolution observed. Between additions, the samples were stirred at 100° C. to dissolve the API in the solvent system. Samples were checked and slurries were isolated by centrifugation (0.22 μm Nylon filters) and the saturates were put in an HPLC vials. The vials were then uncapped and were left to evaporate at 100° C. using a sand bath. After the complete evaporation of solvent, the remaining solid were analysed by XRPD to check for appearance of any new patterns.
# 20 mg×16 farudodstat sample was weighed into 2 ml bead mill vials and milled to prepare amorphous material. The appropriate solvent was added in 100 μL aliquots until a mobile slurry was obtained without any dissolution observed. […]
smiles,measurement,setting,value
COc1cccc(-c2cc(F)c(Nc3ncccc3C(=O)O)c(F)c2)c1 [1302NC0160A-01],Particle Size D10,[1],2.54 μm
same,Particle Size D50,[1],5.97 μm
same,Particle Size D90,[1],11.79 μm
same,Particle Size MV,[1],6.70 μm
COc1cccc(-c2cc(F)c(Nc3ncccc3C(=O)O)c(F)c2)c1 [1412NC0160A-01],Particle Size D10,[1],32.34 μm
same,Particle Size D50,[1],160.95 μm
same,Particle Size D90,[1],238.22 μm
same,Particle Size MV,[1],151.47 μm
COc1cccc(-c2cc(F)c(Nc3ncccc3C(=O)O)c(F)c2)c1 [1412NC0160A-02],Particle Size D10,[1],0.90 μm
same,Particle Size D50,[1],3.46 μm
same,Particle Size D90,[1],45.05 μm
same,Particle Size MV,[1],13.27 μm
"COc1cccc(-c2cc(F)c(Nc3ncccc3C(=O)O)c(F)c2)c1 [farudodstat DSP polymorph, 2-(3,5-difluoro-3′methoxybiphenyl-4-ylamino)nicotinic acid]",solubility,"[2]; 11 organic solvents/mixed solvents, organic solvent or mixture, read-out: relatively poor solubility",< 10000 µg/mL
same,solubility,"[2]; organic solvent or mixture, Acetone:Dichloromethane (1:1), room temperature, read-out: Solubility",< 1580 µg/mL
same,solubility,"[2]; organic solvent or mixture, Acetone:Dichloromethane (3:1), room temperature, read-out: Solubility",< 1900 µg/mL
same,solubility,"[2]; organic solvent or mixture, CHCl3, room temperature, read-out: Solubility",< 570 µg/mL
same,solubility,"[2]; organic solvent or mixture, Cyclohexane, room temperature, read-out: Solubility",< 490 µg/mL
same,solubility,"[2]; organic solvent or mixture, Dichloromethane, room temperature, read-out: Solubility",< 600 µg/mL
same,solubility,"[2]; organic solvent or mixture, Heptane, room temperature, read-out: Solubility",< 810 µg/mL
same,solubility,"[2]; organic solvent or mixture, THF-Heptane (1:1), room temperature, read-out: Solubility",< 1510 µg/mL
same,solubility,"[2]; organic solvent or mixture, Toluene, room temperature, read-out: Solubility",< 530 µg/mL
same,solubility,"[2]; organic solvent or mixture, some solvents, room temperature, read-out: High solubility",> 100000 µg/mL
same,solubility,"[2]; Water, room temperature, read-out: Solubility",< 530 µg/mL
same,Weight loss on heating,[3]; after heating to 200° C.,minimum weight loss
same,Form found in screening experiments,"[3]; all experiments of Table 4 (anti-solvent, grinding, crystallization, drying, milling, heating/cooling, slurry, evaporation)",predominant form
same,Stability on recrystallisation,[3]; recrystallized from a number of solvents,stable and reproducible
same,Polymorph stability,"[3]; samples from THF evaporation and THF-water antisolvent, dried under vacuum at 40° C. overnight",stable
same,Overall stability of polymorph,[4]; conclusion of screening experiments,highly stable; also recorded: high stability
"COc1cccc(-c2cc(F)c(Nc3ncccc3C(=O)O)c(F)c2)c1 [farudodstat, 2-(3,5-difluoro-3′-methoxybiphenyl-4-ylamino) nicotinic acid]",XRPD after room temperature evaporation,"[4]; 1,1,1.3.3.3-Hexafluoro-2-Propanol, 2-Methyl THF, DMF, THF and THP",returned to Pattern 1
same,XRPD after room temperature evaporation,"[4]; 1,1-Dimethoxymethane, 1,3-Dioxolane, 1,4-Dioxane",showed preferred orientation of Pattern 1 but returned to Pattern 1 after grinding
same,XRPD after 2-week slurry then fast evaporation at 100° C.,"[4]; 1,1-Dimethoxymethane, 1,3-Dioxolane, 2-Ethoxyethanol, 1,1,1.3.3.3-Hexafluoro-2-Propanol, DMA, DMF and NMP","showed preferred orientation. However, post-grinding returned these to Pattern 1"
same,"XRPD of solids, solvent solubility assessment","[4]; 1,1-Dimethoxymethane, 1,4-Dioxane, 2-Ethoxyethanol, 1,1,1,3,3,3-Hexafluoro-2-Propanol, 2-Methyl THF, Benzyl Alcohol",remained amorphous
same,XRPD after fast evaporation at 50° C.,"[4]; 1,1-dimethoxymethane and 2-propanol",showed amorphous pattern
same,XRPD after fast evaporation at 50° C.,"[4]; 1,3-dioxlane, 1,4-dioxane",showed preferred orientation
same,XRPD after fast evaporation at 50° C.,"[4]; 2-Ethoxyethanol, new peak at 21.1° 2θ",potential new pattern
same,"XRPD of solids, solvent solubility assessment","[4]; 2-propanol, 48% Methanol:52% Water, 93% Ethanol:7% Water, 98.5% Ethanol:1.5% Water, Methanol, tert-Butylmethyl Ether",returned to Pattern 1
same,XRPD after thermal cycling,"[4]; 1,4-dioxane",remained semi-crystalline
same,XRPD after thermal cycling,"[4]; solvents other than 1,4-dioxane",returned to Pattern 1
same,XRPD after 2-week slurry,"[4]; 93% Ethanol:7% Water, 48% Methanol:52% Water, 2-Propanol, 2-Methyl THF",returned to Pattern 1
same,XRPD after 2-week slurry,[4]; THF and THP,additional peaks with Pattern 1 at 8.1° 2θ (Pattern 1+)
same,XRPD after fast evaporation at 50° C.,[4]; DMF,pattern 1 with significant preferred orientation
same,XRPD after anti-solvent addition + fast cool,"[4]; MEK as anti-solvent in 1,4-dioxane, freezer 72 hrs",consistent with Pattern 1
same,XRPD after fast evaporation at 50° C.,"[4]; THP, THF, 2-methyl THF and 1,1,1.3.3.3-Hexafluoro-2-Propanol",returned to Pattern 1
same,XRPD after anti-solvent addition,"[4]; acetone as anti-solvent, 1,1,1.3.3.3-Hexafluoro-2-Propanol",returned to Pattern 1 with additional peaks
same,XRPD after solvent drop grinding,[4]; all 16 solvent systems,returned to pattern 1
same,XRPD after bead milling,[4]; bead milling,less crystalline material
same,XRPD after fast cooling,"[4]; crash cooling of 1,3-dioxolane saturate, freezer 72 hrs",preferred orientation of Pattern 1
same,"XRPD of solids, solvent solubility assessment",[4]; evaporation of clear solution of THF and THP,"showed preferred orientation, but later returned to Pattern 1 post grinding"
same,XRPD (Grind),"[4]; N,N′-Dimethylacetamide",Pattern 1
same,XRPD (Grind),"[4]; N,N′-Dimethylformamide",Pattern 1
same,XRPD after anti-solvent addition at 50° C.,[4]; water addition to all the 16 saturates,returned to Pattern 1
same,XRPD after anti-solvent addition,"[4]; water, room temperature, except 2-Methyl THF, 2-Propanol, 48% Methanol:52% Water, 93% Ethanol:7% Water, Benzyl Alcohol (clear solutions)",returned to Pattern 1
